# Measured values taken from PubChem BioAssay (NCI).
#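 Step 1: Grow cells in 96-well plates. Step 2: Expose to compound for 48 hours at 5 concentrations. Step 3: Interpolate endpoints linearly; if unreached, use highest concentration. GI50 is the concentration that inhibits growth by half. TGI denotes the concentration required for complete inhibition of growth.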
# Tests used:
# Experiment in all cases: NCI tumour cell line growth inhibition, 48 h
# [1] = tested on: LOX IMVI melanoma
# [2] = tested on: SNB-19 CNS
# [3] = tested on: SK-OV-3 ovarian
# [4] = tested on: U251 CNS
# [5] = tested on: OVCAR-4 ovarian
# [6] = tested on: UO-31 renal
# [7] = tested on: MCF7 breast
# [8] = tested on: SF-295 CNS
# [9] = tested on: HCC-2998 colon
# [10] = tested on: COLO 205 colon
SMILES,GI50 [1] [µM],TGI [1] [µM],GI50 [2] [µM],TGI [2] [µM],GI50 [3] [µM],TGI [3] [µM],GI50 [4] [µM],TGI [4] [µM],GI50 [5] [µM],TGI [5] [µM],GI50 [6] [µM],TGI [6] [µM],GI50 [7] [µM],TGI [7] [µM],GI50 [8] [µM],TGI [8] [µM],GI50 [9] [µM],TGI [9] [µM],TGI [10] [µM],GI50 [10] [µM]
COc1cc(-c2nn(-c3cccc(NC(=O)CCN4CCN(Cc5ccccc5)CC4)c3)cc2-c2ccncc2)ccc1Cl,0.661,1.98,4.42,41.2,4.86,20.6,0.839,2.76,1.8,41,0.887,6.56,0.386,3.27,0.482,1.95,1.68,3.82,–,–
O=C(/C=C/c1ccc(Cl)c(Cl)c1)c1cccc2ccccc12,–,–,–,19.4,–,35.2,–,6.89,–,20.7,–,33.8,–,–,–,24.5,–,22.4,26.2,–
Fc1ccc(/C=N/n2c(-c3ccc(F)c(Cl)c3)n[nH]c2=S)cc1,–,–,22.5,44.1,22,38.5,–,–,19.9,39.9,18.9,41.5,19.7,43,31.7,76.8,34.8,> 100,> 100,37.3
O=Nc1c(-c2c(O)[nH]c3ncccc23)[nH]c2ccccc12,5.32,> 100,> 100,> 100,–,–,> 100,> 100,9.1,> 100,1.64,> 100,18.7,> 100,> 100,> 100,> 24.4,> 100,> 100,28.4
CC1=C(C(=O)Nc2ccc(Cl)c(Cl)c2)C(c2ccc([N+](=O)[O-])cc2)C(C(=O)Nc2ccc(Cl)c(Cl)c2)=C(C)N1,–,4.02,–,> 71.3,–,24.8,–,11.5,–,11.8,–,10.6,–,–,–,9.24,–,4.98,3.13,–
N#CCN1C(=O)c2cc([N+](=O)[O-])cc3cc([N+](=O)[O-])cc(c23)C1=O,–,18.8,–,> 100,–,> 100,–,> 55.6,–,28.4,–,32,–,–,–,> 100,–,29.2,36.6,–
O=C1c2ccccc2N2OC3(N4CCCC4)CCCCC3C12c1ccccc1 (stereo unspecified),–,–,–,> 100,–,> 100,–,> 100,–,28.1,–,> 100,–,–,–,32.7,–,> 100,31,–
Fc1cccc(F)c1C(Nc1nncs1)Nc1nncs1,–,–,–,> 100,–,> 100,–,> 100,–,> 100,–,> 100,–,> 100,–,> 100,–,> 100,> 100,–
CCC(=O)Nc1ccc(N2C(=O)/C(=C/c3ccc(OC)cc3)N=C2c2ccccc2)cc1,2.51,13.2,14.1,> 50,–,–,1.66,8.87,16.2,> 50,30,> 50,7.77,> 50,28,> 50,–,–,> 50,9.23
CCCC(S(=O)(=O)c1ccccc1)S(=O)(=O)c1ccccc1,–,–,–,–,–,> 100,–,> 100,–,> 100,–,> 100,–,–,–,> 100,–,> 100,–,–
O=C1C=C(O)C(=Cc2c(O)cc(O)cc2O)C(O)=C1,–,> 100,–,> 100,–,> 100,–,> 100,–,> 100,–,> 100,–,–,–,> 100,–,> 100,> 100,–
CN=C1OC2(c3ccccc3)C3=C(OC(=NC)N2C)C(=O)OC3(c2ccccc2)N1C (stereo unspecified),–,–,–,> 100,–,> 100,–,> 100,–,> 100,–,–,–,> 100,–,> 100,–,> 100,> 100,–
CC(CO)(Nc1ccc([N+](=O)[O-])cc1[N+](=O)[O-])C(=O)O (stereo unspecified),–,48.2,–,> 100,–,–,–,49.2,–,–,–,37.4,–,32.1,–,> 100,–,43.6,32.8,–
N#CNc1nc(N)c(-c2ccc(Cl)cc2)c(C(=O)Nc2nccs2)n1,–,> 100,–,> 100,–,–,–,> 100,–,> 100,–,> 100,–,–,–,> 100,–,> 100,–,–
Cc1[nH]nc(-c2ccon2)c1N=O,–,–,–,64.8,–,89.2,–,32.8,–,37.6,–,46.6,–,63.2,–,34.6,–,–,49.4,–
Cn1ccnc1Oc1ccc(Cl)cc1,–,36.6,–,> 100,–,> 100,–,46.7,–,19.8,–,23.9,–,38.3,–,–,–,14.9,25.7,–
COc1ccc(-c2cc(=O)c3c(O)cccc3o2)c(OC)c1OC,–,> 100,–,–,–,> 100,–,> 100,–,> 100,–,–,–,–,–,> 100,–,> 100,> 100,–
Cc1cc2c(c(C(N)=O)c1C)-c1cc(Cl)cc(Cl)c1C2=O,–,> 100,–,> 100,–,> 100,–,> 100,–,> 100,–,> 100,–,–,–,> 100,–,> 100,> 100,–
O=C1OC(=O)c2c1c(-c1ccccc1)nc1ccccc21,–,> 100,–,> 100,–,> 100,–,> 100,–,–,–,> 100,–,–,–,> 100,–,> 100,> 100,–
O=Cc1ccc2c(c1I)OCO2,–,> 100,–,> 100,–,> 100,–,> 100,–,> 100,–,> 100,–,–,–,> 100,–,> 100,> 100,–
ClC1=C(Cl)C(Cl)(Cl)c2c3c(c4c(c21)C(Cl)(Cl)C(Cl)=C4Cl)C(Cl)(Cl)C(Cl)=C3Cl,–,> 100,–,> 100,–,> 100,–,> 100,–,–,–,–,–,–,–,> 100,–,> 100,> 100,–
